The values that follow come from patent publication US20230190835A1, “PROBIOTIC BACTERIA FOR TREATING ALZHEIMER'S DISEASE” (RRW B.V., priority 2020, published 2023).

This assay deals with C. elegans nematode strain with inducible amyloid-β accumulation (CL4176). The assay can be described thus: Alzheimer's disease paralysis assay. Type of assay: in vivo. The source says:
The effect of probiotic bacteria and their combinations with other active agents has been studied in C. elegans nematode strains as an animal model for amyloidoses such as Alzheimer's disease. These strains accumulate amyloid-β peptides that form plaques in the nematodes and lead to paralysis of the animals. In certain strains, such as strain CL4176, Aβ accumulation occurs only in response to heat shock. Thus, the Alzheimer's disease pattern is inducible in these strains. The number of paralyzed nematodes after a certain period of time following induction of Aβ accumulation indicates the extent of Alzheimer's disease. Thus, the effect of certain substances to which the nematodes are exposed on the number of paralyzed animals is a measure of the anti-Alzheimer effect of these substances.
Nematodes of strain CL4176 were synchronized at the young larval stage and allowed to grow to the L4 stage on normal growth medium for 72 h at 16° C. The probiotic bacteria to be tested were added to the growth medium. Then the nematodes were exposed to the test substance and the temperature was increased to 25° C. This heat shock induced Aβ accumulation, simulating the onset of Alzheimer's disease. Approximately every 24 h, the number of animals that were still mobile and those that were paralyzed as a result of Aβ accumulation was determined.
C. elegans of strain CL4176 were exposed to a mixture of different probiotic bacteria at a bacterial concentration of 50 cfu (colony-forming units) in this assay. The bacterial mixture contained the following bacterial species: Enterococcus faecium, Bifidobacterium longum, Streptococcus thermophilus, Lactobacillus acidophilus, Lactobacillus plantarum and Bifidobacterium breve. […] In another series of tests, the nematodes were additionally treated with cannabidiol (CBD).
The two probiotic bacterial strains Lactobacillus rhamnosus and Lactobacillus plantarum were allowed to grow to stationary phase and mixed with the normal diet of nematodes (OP50) E. coli bacteria). C. elegans of strain CL4176 at L4 larval stage were exposed to the probiotic bacteria and other active agents in the induction of Aβ accumulation by increasing the temperature to 25° C. The number of paralyzed animals was checked every 24 h and determined after 96 h.
In the described Alzheimer's disease animal model assay, the effect of the bacterial strain Pseudomonas fluorescens was tested. Upon induction of Aβ accumulation by increasing temperature to 25° C., nematodes were exposed to Pseudomonas fluorescens bacteria, curcumin or CBD, or a combination of the bacteria and the active agent. The number of paralyzed nematodes was determined 96 h after induction of Aβ accumulation.

For the molecule `C=C(C)[C@@H]1CCC(C)=C[C@H]1c1c(O)cc(CCCCC)cc1O` [CBD, cannabidiol], the “number of paralyzed nematodes” value (0.08% (v/v), 96 h, FIGS. 3 and 4) is recorded as “reduced”. For the same molecule, the “paralytic nematodes, individually” value (Example 3, 96 h after induction of Aβ accumulation, FIGS. 7 and 8) was “reduction in paralytic nematodes”. In addition, the “effect of combination with Pseudomonas fluorescens” value (combination of Pseudomonas fluorescens and active agent, 96 h after induction of Aβ accumulation, FIGS. 7 and 8) is listed as “strong synergistic increase in effect”. The “effect of additional treatment with the active agent on the effect of the probiotic bacterial mixture” value (in combination with probiotic bacterial mixture, 72 h after induction of Aβ accumulation, FIG. 1) is on record as “significantly increased the effect of probiotic bacteria”.
For `CCCCCc1cc2c(c(O)c1C(=O)O)[C@@H]1C=C(C)CC[C@H]1C(C)(C)O2` [THCA, delta-9-tetrahydrocannabinolic acid], the “number of paralyzed nematodes” value (60 μl, 96 h, FIGS. 3 and 4) is “reduced”.
With Lactobacillus plantarum, for the setting “bacteria grown to stationary phase, mixed with OP50 E. coli diet, 96 h, FIGS. 3 and 4”, the “paralysis due to Aβ accumulation” value was “reduction in paralysis”. For the same molecule, the “prevention of the effects of Aβ accumulation by combination of bacterium with active agents” value (stationary-phase bacteria combined with curcumin, CBD, THCA or combinations thereof, 96 h, FIGS. 3 and 4) is “significant to synergistic prevention of the effects of Aβ accumulation”.
